Results from patent US20160106719A1, “Transplantation Adjuvant in Cell Therapy Using Neural Progenitor Cells” (SUMITOMO DAINIPPON PHARMA CO., LTD., priority 2013, published 2016).

Test system: re-aggregated PSA-NCAM+ cells (neural progenitor cells derived from mouse iPS cell line 440A3)
Experiment: In vitro differentiation of mouse iPS cell-derived neural progenitor cells into dopaminergic neurons (immunocytochemistry for marker molecules)
Type: cell-based
Settings: for ratio of TH+ cells: day 10 to 14, control 5.2±1.1%
Description: DMEM contained 1% fetal bovine serum (FBS), 5% knockout serum replacement (KSR; manufactured by Invitrogen), 0.1 mM non-essential amino acids, 1 mM sodium pyruvate, 0.1 mM 2-mercaptoethanol (2-ME; manufactured by Invitrogen), 2000 U/ml leukemia inhibitory factor (manufactured by Invitrogen), and 1.5 μg/ml puromycin. In order to differentiate and induce the iPS cells into neural cells, serum-free floating culture of embryoid bodies-like aggregates (SFEB) was employed. Specifically, aggregates of the 440A3 cells were separated into individual cells by using 0.25% trypsin/1 mM EDTA (ethylenediaminetetraacetic acid), and the resultant cells were seeded in a 96-well low adhesion plate (product name: Lipidure-Coat Plate A-US96, manufactured by NOF Corporation) at a concentration (cell density) of 3000 cells/well. Thereafter, re-aggregation of the 440A3 cells was induced in a differentiation medium containing GMEM (Glasgow Minimum Essential Medium), 5% KSR, 0.1 mM non-essential amino acids, 1 mM sodium pyruvate and 0.1 mM 2-ME, and this day was defined as day 0 (FIG. 1). During this differentiation process, various factors were added to the differentiation medium for inducing midbrain dopaminergic phenotypes as illustrated in FIG. 1. Specifically, from day 3 to day 7 after starting the SFEB, 20 ng/ml of mouse FGF-8b (manufactured by R & D Systems) was added, from day 4 to day 7 after starting the SFEB, 10 ng/ml of recombinant mouse sonic hedgehog (C25I1) N-terminus (manufactured by R & D Systems) was added, and on and after day 7 after starting the SFEB, 1% N-2 supplement (manufactured by Gibco) and 200 nM ascorbic acid were added. The KSR was removed from the differentiation medium on day 7 after starting the SFEB.
On day 9 after starting the SFEB, the 440A3 cells were washed with phosphate buffered saline (PBS(-)) twice. Thereafter, the 440A3 cells were dissociated into single cells by five-minute incubation performed at 37° C. by using Accumax (manufactured by Innovate Cell Technologies, product name). The cells were collected with a FACS buffer. The FACS buffer was constituted by PBS(-) containing 2% FBS, 20 mM D-glucose and 1% penicillin/streptomycin (P/S, manufactured by Invitrogen). The collected cells were mechanically dissociated into a single cell suspension by a gentle pipetting operation.
Next, the resultant cells were incubated with a mouse anti-PSA-NCAM antibody (dilution rate of 1:200, manufactured by Millipore) at 4° C. for about 30 minutes. Thereafter, a washing operation using a centrifuge was performed twice, and the resultant cells were further incubated for 30 minutes with a secondary antibody of a donkey anti-mouse IgG (dilution rate of 1:400, manufactured by Invitrogen) labeled with AlexaFluor 594. Dead cells and cell debris were excluded by using 7-aminoactinomycin-D (7-AAD, manufactured by BD Pharmigen) stain. The remaining living cells were suspended again at a final concentration (cell density) of 1×10^7 cells/ml. Cell sorting was conducted by using a FACSAria II cell sorter (manufactured by Becton Dickinson And Company) equipped with a 488 nm argon laser, a 633 nm helium-neon laser, a 100 μm nozzle and a FACSDiva software program. A PSA-NCAM positive rate was determined on the basis of a negative control not using a primary antibody.
After the cell sorting, in order to induce the reaggregation of the cells, a PSA-NCAM^+ cell group was seeded in a DMEM/F12 medium (manufactured by Wako Pure Chemical Industries, Ltd.) in a 96-well plate at a concentration (cell density) of 20000 cells/well. The DMEM/F12 medium contained 1% N-2 supplement, 200 nM ascorbic acid, 2% B27 supplement (manufactured by Invitrogen), 0.5 mM L-glutamine and 1% P/S. In order to prevent apoptosis, a ROCK inhibitor, Y-27632 (manufactured by Wako Pure Chemical Industries, Ltd.), was used at a concentration of 30 μM during the cell sorting process and the following overnight cultivation. […]

Compound: CCCC(CCC)C(=O)[O-].[Na+] [VPA, sodium 2-propylpentanoate]
- ratio of TH+ cells (VPA 0.01 mM): 12.1±1.5%
- ratio of TH+ FOXA2+ cells (VPA 0.1 mM, control 0.25±0.22%): 1.00±0.58%
- ratio of TH+ NURR1+ cells (VPA 0.1 mM, control 0.37±0.32%): 1.00±0.70%
- ratio of TH+ cells (VPA 0.1 mM): 11.7±0.4%
